From ChEMBL document CHEMBL3797040, “Withanolides derived from Physalis peruviana (Poha) with potential anti-inflammatory activity” (Bioorg Med Chem Lett, 2016)

Columns and labels:
[1] = test system: HEK293; test: Inhibition of TNFalpha-activated nuclear factor-kappa B activity (unknown origin) expressed in HEK293 cells at 50 uM incubated for 6 hrs by luciferase reporter gene based assay; assay type: cell-based; settings: Homo sapiens
[2] = Inhibition of TNFalpha-activated nuclear factor-kappa B activity (unknown origin) expressed in HEK293 cells incubated for 6 hrs by luciferase reporter gene based assay; assay type: cell-based; settings: Homo sapiens, HEK293, 6 h
[3] = Toxicity against HEK293 cells assessed as cell survival at 50 uM; assay type: cell-based; settings: human, read-out: Survival
[4] = test system: RAW264.7; test: Inhibition of lipopolysaccharide-induced nitric oxide production in mouse RAW264.7 cells at 50 uM pre-incubated for 30 mins before LPS stimulation for 20 hrs by Griess reagent based assay; assay type: functional
[5] = Toxicity against mouse RAW264.7 cells assessed as cell survival at 50 uM by SRB assay; assay type: cell-based; settings: read-out: Survival
[6] = test system: RAW264.7; test: Inhibition of lipopolysaccharide-induced nitric oxide production in mouse RAW264.7 cells pre-incubated for 30 mins before LPS stimulation for 20 hrs by Griess reagent based assay; assay type: functional, cell-based

Compound | inhibition [1] [%] | IC50 [2] [µM] | viability at 50 µM [3] [%] | inhibition at 50 µM [4] [%] | viability at 50 µM [5] [%] | IC50 [6] [µM]
CC1=C(C)C(=O)O[C@@H]([C@@](C)(O)[C@]2(O)CC[C@@]3(O)[C@@H]4C[C@@H](O)[C@@]5(O)CC=CC(=O)[C@]5(C)[C@H]4CC[C@]23C)C1 | 65.8 | 31.2 | 89.6 | 26.4 | 84.1 | –
CC1=C(C)C(=O)O[C@@H]([C@](C)(O)[C@]2(O)CC[C@@]3(O)[C@@H]4C[C@H]5O[C@]56[C@@H](O)C=CC(=O)[C@]6(C)[C@H]4CC[C@]23C)C1 | 99.5 | 0.04 | 88.6 | 99.4 | 50.1 | 0.32
CNC(=N)NCCC[C@H](N)C(=O)O [TILARGININE] | – | – | – | – | – | 23.5
CC(=O)OC1C[C@H](O)CC2=CC[C@H]3[C@@H]4CC[C@H]([C@@](C)(O)[C@@H](O)C[C@@H]5COC(=O)[C@@]5(C)O)[C@@]4(C)CC[C@@H]3[C@]21C (some centres undefined) | 64.4 | 2.1 | 73.3 | 3.7 | 100 | –
CC1=C(C)C(=O)O[C@@H]([C@](C)(O)[C@]2(O)CC[C@@]3(O)[C@@H]4C[C@H]5O[C@]56[C@@H](O)[C@@H](O)CC(=O)[C@]6(C)[C@H]4CC[C@]23C)C1 | 54.1 | – | 97.1 | 86 | 100 | 7.8
CC1=C(CO)C[C@H]([C@](C)(O)[C@]2(O)CC[C@@]3(O)[C@@H]4C[C@@H](O)[C@@]5(O)CC=CC(=O)[C@]5(C)[C@H]4CC[C@]23C)OC1=O | 41 | – | 81.6 | 7.4 | 100 | –
CC1=C(C)C(=O)O[C@@H]([C@](C)(O)[C@]2(O)C[C@H](O)[C@@]3(O)[C@@H]4C[C@H](O)[C@@]5(O)CCCC(=O)[C@]5(C)[C@H]4CC[C@@]32C)C1 | 60.4 | 10.4 | 83.9 | 47.7 | 100 | –
CC(=O)OC1C[C@H](O)CC2=CC[C@H]3[C@@H]4CC[C@H]([C@@](C)(O)[C@@H](O)C[C@@H]5COC(=O)[C@@H]5C)[C@@]4(C)CC[C@@H]3[C@]21C (some centres undefined) | 56.1 | 1.1 | 36.5 | 84.2 | 95.3 | 11.8
CC1=C(C)C(=O)O[C@@H]([C@](C)(O)[C@]2(O)CC[C@@]3(O)[C@@H]4[C@@H](O)[C@@H](O)[C@@]5(O)CC=CC(=O)[C@]5(C)[C@H]4CC[C@]23C)C1 | 66.9 | 24.6 | 98.4 | 58.3 | 90.4 | 44.6
CC1=C(C)C(=O)O[C@@H]([C@](C)(O)[C@]2(O)CC[C@@]3(O)[C@@H]4C[C@H](O)C5=CC=CC(=O)[C@]5(C)[C@H]4CC[C@]23C)C1 | 85 | 5.6 | 100 | 99.2 | 79.3 | 2.4
CC1=C(C)C(=O)O[C@@H]([C@](C)(O)C2=CC[C@@]3(O)[C@@H]4C[C@H]5O[C@]56[C@@H](O)CCC(=O)[C@]6(C)[C@H]4CC[C@]23C)C1 | 43.7 | – | 81.9 | 64.7 | 100 | 14.6
